Laboratory results published in patent US9067913B2, “Fumigillol type compounds and methods of making and using same” (Zafgen, Inc., priority 2010, dated 2015).
pIC50: −log10 of the molar value. Marks after values point to notes of the source that are not given here.

Legend:
[1] = Example 4: body weight loss compared to vehicle, 3 mg/kg for 10 days; assay type: in vivo, C57BL/6 mice; settings: compared with compound (i) and compound (ii)
Method: 20 week old C57BL/6 mice on 60% kcal fat diet for 14 weeks treated with either 10% DMSO or the same vehicle containing an amount of drug to deliver a dose of 3 mg/kg of compound (ii) (as identified above), compound (i) [fumigillol], and compound A for 10 days. FIG. 3 indicates the body weight loss compared to vehicle for each compound.

[2] = Study A: 7 day screen, weight loss in mice on 45% kcal fat diet; assay type: in vivo, C57BL/6 mice
Method: Three studies were conducted using 18-20 week old C57BL/6 mice. Study A was a 7 day screen that included 18-20 week old C57BL/6 mice that were provided a 45% kcal fat diet for 14 weeks, and treated with either 10% Gelucire in water or the same vehicle containing an amount of compound A to deliver a dose of 1 mg/kg dosed daily for 7 days.

[3] = weight loss study in obese mice (high-fat diet induced), Example 2; assay type: in vivo, C57BL/6NTac mice; settings: 1.0 mg/kg in 10% gelucire in deionised water, once a day for 7 days, 60% fat diet
Method: A weight loss study was conducted in obese mice. The mice in this study were not genetically obese, but prior to and during the study, obesity was induced by a high-fat diet. Twelve week-old C57BL/6NTac mice, maintained on a 60% fat diet prior to and during the study, were separated into seven groups, eight animals per group. Average body weight of the mice was approximately 47 g at the start of the study.
Mice were administered 1.0 mg/kg of compound A in 10% gelucire in deionised water. Mice received administrations once a day for 7 days. The one week weight loss was 11.9%.

[4] = system: MetAP2; experiment: Example 4: testes biomarker, N-terminal peptide of mouse thioredoxin (SEQ ID NO. 1) by LC-MS/MS; assay type: in vivo; settings: 3 mg/kg for 10 days, testes harvested at end of study
From the text: At the end of the study testes from the mice were harvested, homogenized and digested with endoproteinase Glu-C.

[5] = biological target: T1, MetAP2 (Homo sapiens, UniProt P50579); experiment: MetAP2 enzyme assay; assay type: biochemical; settings: for inhibition at 0.05 µM: 50 nM; for inhibition at 0.2 µM: 200 nM
Method: Compound A was tested in a MetAP2 enzyme assay. Table 1 indicates the inhibition results for various concentrations: […]

[6] = biological target: T1, MetAP2; experiment: cell based assay, inhibition of MetAP2
Method: In a cell based assay, the inhibition of MetAP2 was <10 nM.

[7] = Study B: 10 day study, weight loss in mice on 60% kcal fat diet; assay type: in vivo, C57BL/6 mice; settings: PO 3 mg/kg, 10% DMSO
Method: Study B was a 10 day study that included 20 week old C57BL/6 mice on 60% kcal fat diet for 14 weeks treated with either 10% DMSO or the same vehicle containing an amount of drug to deliver a dose of 3 mg/kg of compound A for 10 days. FIG. 2 depicts the 7-day PO efficacy at 3 mg/kg of compound A.

[8] = Study C: 10 day study, weight loss in mice on 60% kcal fat diet; assay type: in vivo, C57BL/6 mice; settings: 10% DMSO
Method: Study C was a 10 day study that included 20 week old C57BL/6 mice on 60% kcal fat diet for 14 weeks treated with either 10% DMSO or the same vehicle containing an amount of drug to deliver an oral dose of 1 mg/kg or 3 mg/kg of the compound 6-O-(4-dimethylaminoethoxy)cinnamoyl fumagillol (dimethyl analogue) for 10 days.

T1 sequence (P50579 whole entry, species assumed): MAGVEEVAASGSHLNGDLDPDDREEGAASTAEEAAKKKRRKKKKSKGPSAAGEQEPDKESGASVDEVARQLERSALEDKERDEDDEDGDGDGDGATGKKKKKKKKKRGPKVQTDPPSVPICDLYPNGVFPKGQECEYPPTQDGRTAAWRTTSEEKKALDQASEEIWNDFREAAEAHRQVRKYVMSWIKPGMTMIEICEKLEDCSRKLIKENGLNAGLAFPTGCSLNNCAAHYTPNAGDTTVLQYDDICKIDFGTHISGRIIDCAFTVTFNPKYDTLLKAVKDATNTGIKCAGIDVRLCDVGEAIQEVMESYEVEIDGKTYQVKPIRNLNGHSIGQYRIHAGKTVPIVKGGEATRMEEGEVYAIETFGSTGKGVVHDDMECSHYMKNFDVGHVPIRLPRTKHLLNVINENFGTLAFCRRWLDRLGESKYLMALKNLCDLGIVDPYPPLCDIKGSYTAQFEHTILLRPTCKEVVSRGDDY

Row | Compound | weight loss potency (FIG. 3) [1] | weight loss at day 7 ([2]; PO 1 mg/kg daily, Study A, 10% Gelucire in water, 45% kcal fat diet) [%^a] | potency dosed orally as compared to 6-O-(4-dimethylaminoethoxy)cinnamoyl fumagillol ([2]; day 7 weight loss, studies A, B, C compared) [times] | one week weight loss [3] [%] | availability to the testes tissue (concentration of SEQ ID NO. 1, FIG. 4) [4] | inhibition at 0.05 µM ([5]; 1 hr) [%] | inhibition at 0.2 µM ([5]; 1 hr) [%] | inhibition at 0.05 µM ([5]; 2 hr) [%] | inhibition at 0.2 µM ([5]; 2 hr) [%] | inhibition at 0.05 µM ([5]; 4 hr) [%] | inhibition at 0.2 µM ([5]; 4 hr) [%] | pIC50 [6] | weight loss at day 7 [7] [%^b] | weight loss at day 7 ([8]; PO 1 mg/kg) [%^c] | weight loss at day 7 ([8]; PO 3 mg/kg) [%^c]
1 | CCN(CC)CCOc1ccc(/C=C/C(=O)O[C@@H]2CC[C@]3(CO3)[C@@H]([C@@]3(C)O[C@@H]3CC=C(C)C)[C@@H]2OC)cc1 [Compound A] | comparable weight loss potency | 12 | ≥ 3 | 11.9 | not as available to the testes tissue as compared to the other tested compounds | 42 | 100 | 45 | 100 | 71 | 100 | > 8.00 | 13 |  | 
2 | CO[C@@H]1[C@H](OC(=O)C=Cc2ccc(OCCN(C)C)cc2)CC[C@]2(CO2)[C@H]1[C@@]1(C)O[C@@H]1CC=C(C)C [dimethyl analogue, 6-O-(4-dimethylaminoethoxy)cinnamoyl fumagillol] |  |  |  |  |  |  |  |  |  |  |  |  |  | 1.1 | 11
